Earlier results, collected in PMC6738313 (The Oncologist, 2019).

Columns and labels:
[1] = test system: first-line poor- or intermediate-risk patients with mRCC; settings: CABOSUN
[2] = test system: patients with metastatic renal cell carcinoma
CYP3A4/5 = settings: clinical data

COc1cc2nccc(Oc3ccc(NC(=O)C4(C(=O)Nc5ccc(F)cc5)CC4)cc3)c2cc1OC [cabozantinib]
Estimated progression-free survival (PFS) ([1]; 95% CI 6.2–8.8): 8.2 months | Objective response rate (ORR) ([1]; first-line poor- or intermediate-risk patients with mRCC): 46%

CNC(=O)c1ccccc1Sc1ccc2c(/C=C/c3ccccn3)n[nH]c2c1 [Axitinib]
Progression-free survival (PFS) ([2]; axitinib single agent, first-line therapy, 95% CI 7.2–12.1): 10.1 months | Objective response rate (ORR) ([2]; single-agent axitinib, first-line mRCC, phase III trial versus sorafenib): 32% | Metabolic pathway (CYP3A4/5): primarily metabolized by CYP3A4/5

C[C@@H](Oc1cc(-c2cnn(C3CCNCC3)c2)cnc1N)c1c(Cl)ccc(F)c1Cl [crizotinib, Crizotinib]
CYP3A4/5 inhibition (classification) (CYP3A4/5): moderate time‐dependent CYP3A4/5 inhibitor
